The values below come from article PMC10029296, “Glepaglutide, a novel glucagon-like peptide-2 agonist, has anti-inflammatory and mucosal regenerative effects in an experimental model of inflammatory bowel disease in rats” (BMC Gastroenterology, 2023).

The term EC50 denotes the concentration needed to bring the measured effect to its halfway point. Low readings indicate a more potent agent, high ones a less potent agent.

No end group written: not given here.

The test system of data set [1] is male Wistar rats. In words: INDO-induced small intestinal inflammation model validation study (INDO dose finding). To be noted: data not shown.
Data set [2] deals with male Wistar rats. As to conditions: rat, in vivo.
Description: In this study, a dose of INDO 7 mg/kg was used based on the results of an INDO-induced small intestinal inflammation model validation study conducted by Zealand Pharma.
A further data set deals with T1, hGLP-2R (Homo sapiens, UniProt O95838, D470N).
T1 sequence (O95838 1-553 D470N): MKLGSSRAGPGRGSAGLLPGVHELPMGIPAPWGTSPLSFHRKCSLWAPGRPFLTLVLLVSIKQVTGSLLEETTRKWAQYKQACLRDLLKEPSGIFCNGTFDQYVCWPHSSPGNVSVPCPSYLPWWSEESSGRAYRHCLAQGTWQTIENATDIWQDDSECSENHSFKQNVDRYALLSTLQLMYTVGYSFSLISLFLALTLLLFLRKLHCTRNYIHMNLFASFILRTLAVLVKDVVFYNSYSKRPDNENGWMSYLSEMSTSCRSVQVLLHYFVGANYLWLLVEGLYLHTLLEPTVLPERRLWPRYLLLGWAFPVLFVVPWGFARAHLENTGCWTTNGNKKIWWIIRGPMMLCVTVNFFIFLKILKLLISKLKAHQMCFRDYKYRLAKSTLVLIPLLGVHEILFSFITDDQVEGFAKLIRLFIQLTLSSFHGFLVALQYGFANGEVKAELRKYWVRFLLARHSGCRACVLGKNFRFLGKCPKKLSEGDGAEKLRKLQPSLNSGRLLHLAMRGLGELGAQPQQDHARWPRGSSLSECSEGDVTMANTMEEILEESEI
Description: cAMP accumulation assay in HEK293 cells stably expressing hGLP-2R (AlphaScreen). A general note: Cyclic AMP is a second messenger, typically raised through Gs and lowered through Gi signalling.

For data set [3], the system named is Wistar rats with INDO-induced small intestinal inflammation. In words: INDO-induced small intestinal inflammation model, co- and post-treatment. In kind it is in vivo, rat. As to conditions: 400 nmol/kg SC twice daily. As to the method: Two treatment regimens were studied: glepaglutide (400 nmol/kg, SC, twice daily) was administered in a co-treatment regimen (Fig. 1B – administered at inflammation onset and throughout), and a post-treatment regimen (Fig. 1C – administered after inflammation onset and throughout).
Two groups of controls, INDO controls (administered with INDO and treated with vehicle) and controls (administered with saline solution and treated with vehicle), were included in the studies (Fig. 1B and C). Groups of rats (n = 7–15) were sacrificed during the active inflammation phase (2–3 days after inflammation onset), on day 3 for the co-treatment regimen (Fig. 1B) and on day 4 for the post-treatment regimen (Fig. 1C), to determine small intestinal length, jejunal and ileal mass, and α-1-acid glycoprotein (α-1-AGP) and myeloperoxidase (MPO) concentrations in the jejunum and ileum. Equivalent groups of rats were sacrificed during the body weight recovery phase (14–15 days after inflammation onset), on day 14 for the co-treatment regimen (Fig. 1B), and on day 16 for the post-treatment regimen (Fig. 1C), to determine jejunal and ileal mass. Body weight and survival were recorded daily.
(§1) Animals were anesthetized with carbon dioxide and then sacrificed by cervical dislocation. The small intestine (from the pylorus to the ileocecal junction) was dissected away from the abdomen and the surrounding mesenteric fat. Small intestinal length was measured after weighing the small intestine with a 1 g weight to obtain uniform tension. Thereafter, the small intestine was divided into two segments of equal length labeled as the jejunum and ileum. Segments were gently flushed with 0.9% saline, padded dry, and weighed. A 5 cm biopsy was collected 10 cm distal from the start of the jejunal segment, and another 5 cm biopsy was collected 10 cm distal from the start of the ileal segment. The biopsies were immediately frozen in liquid nitrogen and stored at -80 °C for later analysis of concentrations of α-1-AGP and MPO using commercially available enzyme-linked immunosorbent assay kits (Life Diagnostics [2510–2] and Hycult Biotech [HK 210], respectively). The preparation method was validated in house.
Data are presented as mean ± standard error of the mean, unless otherwise stated. The intestinal growth-promoting effect of glepaglutide in naive rats was determined using a two-way analysis of variance (ANOVA, dose and time), and significant findings were further analyzed with the Bonferroni post hoc test. In the INDO model, a t-test was used to compare INDO control-treated rats with vehicle control-treated rats, and INDO control-treated rats with glepaglutide-treated rats. A p value of ≤ 0.05 was considered statistically significant. Grubbs’ test was used to test for outliers in the section, and outliers were not included in the analyses. Differences in survival between different groups were compared by the Cox–Mantel log-rank test.

The test system of another data set is naive Wistar rats. Description: Intestinotrophic effect in naive rats. In kind it is in vivo, rat. To be noted: 80 and 400 nmol/kg SC once daily for 7 days, vs vehicle, 400 vs 80 nmol/kg p < 0.05. On the procedure:
Glepaglutide (80 nmol/kg or 400 nmol/kg, SC, once daily) or vehicle (SC, once daily) were administered for 14 days to naive Wistar rats to assess the intestinotrophic properties of the peptide, before initiating studies in the small intestinal inflammation model (Fig. 1A). Overall, 18 rats were included per arm, with 6 rats each sacrificed on day 0, day 7, and day 14.
as §1, with “The biopsies were immediately frozen in liquid nitrogen and stored at -80 °C for later analysis of concentrations of α-1-AGP and MPO using commercially available enzyme-linked immunosorbent assay kits (Life Diagnostics [2510–2] and Hycult Biotech [HK 210], respectively). The preparation method was validated in house.” left out
Data are presented as mean ± standard error of the mean, unless otherwise stated. The intestinal growth-promoting effect of glepaglutide in naive rats was determined using a two-way analysis of variance (ANOVA, dose and time), and significant findings were further analyzed with the Bonferroni post hoc test. […]

In data set [4] the test system is patients with moderate to severe CD. As to conditions: 8 weeks of treatment, failed to reach statistical significance; cited from earlier work. The source says:
Use of GLP-2 agonists for the treatment of IBD is not a novel concept. The ability of teduglutide to induce remission or to reduce the Crohn’s disease activity index (CDAI) score by at least 100 points after 8 weeks of treatment was examined in patients with moderate to severe CD [37]. […] We speculate that the study was underpowered and that the assessment of mucosal healing, rather than the CDAI, would have been a better endpoint to assess the effect of ...

The mark [5] stands for this setting: co-treatment, body weight recovery phase (day 14), vs INDO controls.
Where [6] appears, read: post-treatment, active inflammation phase (day 4), ELISA, vs INDO controls, p < 0.01.
Where [7] appears, read: post-treatment, body weight recovery phase (day 16), vs INDO controls.

Description for hGLP-2R: For assaying, HEK293 cells stably expressing hGLP-2R were seeded at 30,000 cells per well in 96-well microtiter plates coated with 0.01% poly-L-lysine. […] The reaction was stopped by decanting off the compound/buffer and replacing it with 80 µl lysis/detection buffer consisting of deionized water supplemented with 0.1% w/v BSA (Sigma-Aldrich A9430), 5 mM HEPES, and 0.3% v/v Tween-20 (Sigma-Aldrich P7949).
Compound potency (EC50) and maximal effect (Emax) values were estimated by computer-aided curve fitting using a three-parameter logistic non-linear model.

As for `COc1ccc2c(c1)c(CC(=O)O)c(C)n2C(=O)c1ccc(Cl)cc1` [INDO, indomethacin], in the data set on male Wistar rats [1], the “Mortality, INDO 15 mg/kg” value is “exaggerated mortality”. In addition, in the data set on male Wistar rats [2], the “Induction of inflammation, INDO 3 mg/kg” value is “insufficient for inducing inflammation”; the “Induction of macroscopic features of inflammation, INDO 7 mg/kg” value was “sufficient and appropriate”.

Take “HGEGTFSSELATILDALAARDFIAWLIATKITDKKKKKK-NH2 (C-terminus assumed) [Glepaglutide]”: on hGLP-2R (response normalized to a saturating concentration of hGLP-2 and baseline cAMP of unstimulated receptor, mean ± SEM, n = 5), the “Emax ± SEM, agonism of hGLP-2R (cAMP accumulation)” value amounted to 102 ± 3.7. The “Ileal MPO concentration, co-treatment” value in data set [3] (co-treatment, active inflammation phase (day 3), ELISA, vs INDO controls, p < 0.001) was “significantly decreased”. Also, the “Ileal α-1-AGP concentration, co-treatment” value in data set [3] (co-treatment, active inflammation phase (day 3), ELISA, vs INDO controls, p < 0.05) was “significantly decreased”. For the same compound, in data set [3] (co-treatment, active inflammation phase (day 3), vs INDO controls, p < 0.001), the “Small intestinal shortening (small intestinal length), co-treatment” value is recorded as “reversed”. Also, in data set [3] (co-treatment, active inflammation phase, vs INDO controls, p < 0.05), the “Ileal mass, co-treatment, active inflammation phase” value is “significantly increased”. Besides, in data set [3] (setting [5]), the “Ileal mass, co-treatment, body weight recovery phase” value is reported as “significantly increased” and the “Jejunal mass, co-treatment, body weight recovery phase” value was “significantly increased”. Also, the “Acute body weight loss, co-treatment” value in data set [3] (co-treatment, vs INDO controls, p < 0.001, data not shown) is on record as “significantly decreased”. For the same compound, in data set [3] (setting [6]), the “Ileal α-1-AGP concentration, post-treatment” value was “significantly decreased” and the “Jejunal α-1-AGP concentration, post-treatment” value is listed as “significantly decreased”. Also, the “Jejunal MPO concentration, post-treatment” value in data set [3] (post-treatment, active inflammation phase (day 4), ELISA, vs INDO controls, p < 0.05) is recorded as “significantly decreased”. Besides, in data set [3] (post-treatment, active inflammation phase (day 4), vs INDO controls, p = 0.05), the “Small intestinal shortening (small intestinal length), post-treatment” value is given as “significantly reversed”. Also, in data set [3] (setting [7]), the “Ileal mass, post-treatment, body weight recovery phase” value is listed as “significantly increased” and the “Jejunal mass, post-treatment, body weight recovery phase” value is “significantly increased”. For the same compound, the “Acute body weight loss, post-treatment” value in data set [3] (post-treatment, data not shown) is on record as “no effect”. In addition, the “Small intestinal mass, day 7” value in the data set on naive Wistar rats was “dose-dependently increased”.

As for “HGEGTFSSELATILDALAARDFIAWLIATKITDKKKKKK-NH2 [Glepaglutide]”, the EC50 on hGLP-2R (SEM) was 0.0933 nM. Besides, the Survival entry in data set [3] (co- and post-treatment regimens, Cox–Mantel log-rank test) is given as “no effect”.

Take [Gly^2]GLP-2 [teduglutide]: the “Effect on CDAI score” value in data set [4] was “positive, dose-dependent effect”.
